Where a SMILES comes first, the peptide text is derived from it. [ ]: non-standard residue; d: D form. Nva = CCC[C@H](N)C(=O)O
Legend:
[1] = tested on: peptidases present in cytoplasmic extracts obtained from NF1, NF2, NF3, LNF1, LNF2, LNF3, and SC 5314 cells; assay: Peptide cleavage rate in cell-free extract (Cd-ninhydrin); type: in vitro ADME, Candida albicans; conditions: pH 6.5, 30°C
Procedure: Yeast cells from the overnight culture in YNB-SG were harvested by centrifugation and washed with cold 25 mM potassium phosphate buffer (pH 6.5). Cells were then suspended in a minimal amount of the buffer and disrupted with the French press. The resulting suspension was centrifuged (35,000 ×g, 4°C, 45 min), and the supernatant was used as a cell-free extract for the determination of peptide cleavage rates.
The incubation mixtures, consisting of 10 mL of a 200 mM peptide solution in 50 mM potassium phosphate buffer (pH 6.5) and 2 mL of an appropriately diluted crude extract (final protein concentration, 0.1–0.5 mg mL^-1), were incubated at 30°C. At 5 min intervals, 2 mL aliquots were withdrawn and heated at 100°C for 3 min. The resulting suspensions were centrifuged to remove the protein precipitates and the concentration of free amino acids in the supernatant was determined by the Cd-ninhydrin procedure ([Doi et al., 1981]).

[2] = tested on: C. albicans isolates NF1-3 and LNF1-3; assay: Initial peptide uptake rate by isolates resistant to F2/F3; type: cell-based, Candida albicans; conditions: all six isolates NF1-3, LNF1-3; Figure 4
Procedure: (§1) Yeast cells grown exponentially in the YNB-SG medium were harvested by centrifugation (3000 ×g, 5 min), washed with 50 mM potassium phosphate buffer (pH 5.0 or 6.5), and suspended in the same buffer containing 1% glucose, to a final cell density corresponding to A660 ≅ 1.0. The cell suspension was incubated at 30°C. After 10 min, an oligopeptide solution was added, to give a final concentration of 100 μM. At that moment and at 5 min intervals thereafter, 2 mL samples of the cell suspension were withdrawn, immediately filtered through the Whatman GF/A filters and the filtrates were used to determine the residual peptide concentration. Then, the 1 mL portions of the filtrates were taken and combined with 1.25 mL aliquots of a solution containing 4% Na2B4O7 × 10 H2O and 0.8 mg mL^-1 of 2,4,6-trinitrobenzenesulfonate. The reaction was carried out at 37°C for 30 min. The A420 values were measured and the peptide concentration was read from the appropriate standard curve. Data were plotted as nanomoles of an oligopeptide, taken up by 1 mg (dry weight) of cells versus time. The initial uptake velocities were determined from the slopes of the linear part of the curves, in the 0- to 10-min region.
It is therefore clear that the diminished sensitivity of all six isolates to F2 and F3 was due to the reduced uptake, most likely by permease(s) of the PTR system.

C. albicans opt5Δ = assay: Initial peptide uptake rate; type: cell-based, Candida albicans; conditions: 50 mM potassium phosphate buffer (pH 5.0 or 6.5) + 1% glucose, 30°C, 100 μM peptide, TNBS A420, slope 0- to 10-min
Procedure: as §1

C. albicans SC5314 = assay: Initial peptide uptake rate; type: cell-based, Candida albicans; conditions: SC 5314; cells grown in YNB-SG; 50 mM potassium phosphate buffer (pH 5.0 or 6.5) + 1% glucose, 30°C, 100 μM peptide, residual peptide by TNBS A420, slope 0- to 10-min
Procedure: as §1

C. albicans ptr2Δ ptr22Δ = assay: Initial peptide uptake rate; type: cell-based, Candida albicans; conditions: 50 mM potassium phosphate buffer (pH 5.0 or 6.5) + 1% glucose, 30°C, 100 μM peptide, TNBS A420, slope 0- to 10-min
Procedure: as §1

C. albicans opt2Δ opt3Δ = assay: Initial peptide uptake rate; type: cell-based, Candida albicans; conditions: 50 mM potassium phosphate buffer (pH 5.0 or 6.5) + 1% glucose, 30°C, 100 μM peptide, TNBS A420, slope 0- to 10-min
Procedure: as §1

C. albicans opt1Δ = assay: Initial peptide uptake rate; type: cell-based, Candida albicans; conditions: 50 mM potassium phosphate buffer (pH 5.0 or 6.5) + 1% glucose, 30°C, 100 μM peptide, TNBS A420, slope 0- to 10-min
Procedure: as §1

C. albicans opt4Δ = assay: Initial peptide uptake rate; type: cell-based, Candida albicans; conditions: 50 mM potassium phosphate buffer (pH 5.0 or 6.5) + 1% glucose, 30°C, 100 μM peptide, TNBS A420, slope 0- to 10-min
Procedure: as §1

[3] = tested on: C. albicans opt1–opt5Δ ptr2Δ ptr22Δ; assay: Initial peptide uptake rate; type: cell-based, Candida albicans; conditions: 50 mM potassium phosphate buffer (pH 5.0 or 6.5) + 1% glucose, 30°C, 100 μM peptide, TNBS A420, slope 0- to 10-min
Procedure: as §1

C. albicans opt1–opt5Δ = assay: Initial peptide uptake rate; type: cell-based, Candida albicans; conditions: 50 mM potassium phosphate buffer (pH 5.0 or 6.5) + 1% glucose, 30°C, 100 μM peptide, TNBS A420, slope 0- to 10-min
Procedure: as §1

Row | Compound | Velocity of proteolytic cleavage relative to F6, F7, and F11 [1] | Initial uptake rate relative to wild type SC5314 cells [2] | Uptake rate ± SD (C. albicans opt5Δ) | Uptake rate ± SD (C. albicans SC5314) | Uptake rate ± SD (C. albicans ptr2Δ ptr22Δ) | Uptake rate ± SD (C. albicans opt2Δ opt3Δ) | Uptake rate ± SD (C. albicans opt1Δ) | Uptake rate ± SD (C. albicans opt4Δ) | Uptake rate ± SD [3] | Uptake rate ± SD (C. albicans opt1–opt5Δ)
1 | CCC[C@H](N)C(=O)N[C@@H](Cc1ccccc1)C(=O)N[C@@H](CCSC)C(=O)N[C@@H](CC(=O)O)C(=O)N1CCC[C@H]1C(=O)O [Peptide F2, Nva-FMDP] (H-[Nva]FMDP-OH) | two to three times higher | remarkably lower | 4.78 ± 0.11 nmol min^-1 (mg dry weight)^-1 | 4.83 ± 0.11 nmol min^-1 (mg dry weight)^-1 | <0.1 nmol min^-1 (mg dry weight)^-1 | 4.80 ± 0.15 nmol min^-1 (mg dry weight)^-1 | 4.75 ± 0.09 nmol min^-1 (mg dry weight)^-1 | 4.86 ± 0.14 nmol min^-1 (mg dry weight)^-1 | <0.1 nmol min^-1 (mg dry weight)^-1 | 4.05 ± 0.18 nmol min^-1 (mg dry weight)^-1
2 | CCC[C@H](NC(=O)[C@@H](N)CCCCN)C(=O)N[C@@H](Cc1ccccc1)C(=O)N[C@@H](CCSC)C(=O)N[C@@H](CC(=O)O)C(=O)N1CCC[C@H]1C(=O)O [Peptide F3, Lys-Nva-FMDP] (H-K[Nva]FMDP-OH) | two to three times higher | lower | 4.19 ± 0.16 nmol min^-1 (mg dry weight)^-1 | 4.32 ± 0.14 nmol min^-1 (mg dry weight)^-1 | 0.11 ± 0.04 nmol min^-1 (mg dry weight)^-1 | 3.23 ± 0.19 nmol min^-1 (mg dry weight)^-1 | 4.08 ± 0.14 nmol min^-1 (mg dry weight)^-1 | 4.12 ± 0.15 nmol min^-1 (mg dry weight)^-1 | <0.1 nmol min^-1 (mg dry weight)^-1 | 2.98 ± 0.18 nmol min^-1 (mg dry weight)^-1
